From PMC12102759 (Protein Science : A Publication of the Protein Society, 2025)

Tested on: G3BP1 NFT2
Assay type: binding, human
Details: library DMS-BM; bait G3BP1 NFT2; prey CAPRIN1; AQMQGPYNFIQDSM(averaged): mean of the two overlapping peptides over the shared positions

| Substance | DMS position-specific score (PSSM value) per amino-acid substitution, averaged |
| --- | --- |
| AQMQGPYNFIQDSM(averaged) Q2R (ARMQGPYNFIQDSM) | 0.001052 |
| AQMQGPYNFIQDSM(averaged) D12H (AQMQGPYNFIQHSM) | 0.1155 |
| AQMQGPYNFIQDSM(averaged) A1P (PQMQGPYNFIQDSM) | 0.07411 |
| AQMQGPYNFIQDSM(averaged) P6V (AQMQGVYNFIQDSM) | 0.006564 |
| AQMQGPYNFIQDSM(averaged) I10W (AQMQGPYNFWQDSM) | 0.1749 |
| AQMQGPYNFIQDSM(averaged) S13R (AQMQGPYNFIQDRM) | 0.001343 |
| AQMQGPYNFIQDSM(averaged) P6S (AQMQGSYNFIQDSM) | 0.00881 |
| AQMQGPYNFIQDSM(averaged) M14G (AQMQGPYNFIQDSG) | 0.000626 |
| AQMQGPYNFIQDSM(averaged) Q2L (ALMQGPYNFIQDSM) | 0.006039 |
| AQMQGPYNFIQDSM(averaged) D12D | 0.268 |
| AQMQGPYNFIQDSM(averaged) Y7S (AQMQGPSNFIQDSM) | 0.06469 |
| AQMQGPYNFIQDSM(averaged) Y7M (AQMQGPMNFIQDSM) | 0.001832 |
| AQMQGPYNFIQDSM(averaged) I10E (AQMQGPYNFEQDSM) | 0.0004486 |
| AQMQGPYNFIQDSM(averaged) S13G (AQMQGPYNFIQDGM) | 0.0006715 |
| AQMQGPYNFIQDSM(averaged) N8E (AQMQGPYEFIQDSM) | 0.01047 |
| AQMQGPYNFIQDSM(averaged) N8L (AQMQGPYLFIQDSM) | 0.06185 |
| AQMQGPYNFIQDSM(averaged) A1D (DQMQGPYNFIQDSM) | 0.01051 |
| AQMQGPYNFIQDSM(averaged) A1G (GQMQGPYNFIQDSM) | 0.01098 |
| AQMQGPYNFIQDSM(averaged) S13L (AQMQGPYNFIQDLM) | 0.0002731 |
| AQMQGPYNFIQDSM(averaged) D12L (AQMQGPYNFIQLSM) | 0.008174 |
| AQMQGPYNFIQDSM(averaged) Q2E (AEMQGPYNFIQDSM) | 0.09844 |
| AQMQGPYNFIQDSM(averaged) G5F (AQMQFPYNFIQDSM) | 0.2345 |
| AQMQGPYNFIQDSM(averaged) A1Y (YQMQGPYNFIQDSM) | 0.1391 |
| AQMQGPYNFIQDSM(averaged) P6E (AQMQGEYNFIQDSM) | 0.004474 |
| AQMQGPYNFIQDSM(averaged) D12M (AQMQGPYNFIQMSM) | 0.01204 |
| AQMQGPYNFIQDSM(averaged) M14M | 0.2883 |

| Substance | DMS position-specific score (PSSM value) per amino-acid substitution, averaged |
| --- | --- |
| AQMQGPYNFIQDSM(averaged) M3R (AQRQGPYNFIQDSM) | 0.003692 |
| AQMQGPYNFIQDSM(averaged) Q4F (AQMFGPYNFIQDSM) | 0.01567 |
| AQMQGPYNFIQDSM(averaged) A1I (IQMQGPYNFIQDSM) | 0.00266 |
| AQMQGPYNFIQDSM(averaged) M14D (AQMQGPYNFIQDSD) | 0.036 |
| AQMQGPYNFIQDSM(averaged) Q11Q | 0.3738 |
| AQMQGPYNFIQDSM(averaged) D12R (AQMQGPYNFIQRSM) | 0.003499 |
| AQMQGPYNFIQDSM(averaged) G5R (AQMQRPYNFIQDSM) | 0.0001509 |
| AQMQGPYNFIQDSM(averaged) I10N (AQMQGPYNFNQDSM) | 0.0004895 |
| AQMQGPYNFIQDSM(averaged) Y7V (AQMQGPVNFIQDSM) | 0.02381 |
| AQMQGPYNFIQDSM(averaged) D12T (AQMQGPYNFIQTSM) | 0.005851 |
| AQMQGPYNFIQDSM(averaged) Q11A (AQMQGPYNFIADSM) | 0.001301 |
| AQMQGPYNFIQDSM(averaged) Q4A (AQMAGPYNFIQDSM) | 0.0506 |
| AQMQGPYNFIQDSM(averaged) Q4T (AQMTGPYNFIQDSM) | 0.0001371 |
| AQMQGPYNFIQDSM(averaged) M14T (AQMQGPYNFIQDST) | 0.005834 |
| AQMQGPYNFIQDSM(averaged) I10P (AQMQGPYNFPQDSM) | 0 |
| AQMQGPYNFIQDSM(averaged) Q11Y (AQMQGPYNFIYDSM) | 0.0642 |
| AQMQGPYNFIQDSM(averaged) F9Y (AQMQGPYNYIQDSM) | 0.002988 |
| AQMQGPYNFIQDSM(averaged) M3G (AQGQGPYNFIQDSM) | 0.02919 |
| AQMQGPYNFIQDSM(averaged) P6I (AQMQGIYNFIQDSM) | 0.007006 |
| AQMQGPYNFIQDSM(averaged) P6H (AQMQGHYNFIQDSM) | 0.008056 |
| AQMQGPYNFIQDSM(averaged) Q4M (AQMMGPYNFIQDSM) | 0.02121 |
| AQMQGPYNFIQDSM(averaged) P6P | 0.3942 |
| AQMQGPYNFIQDSM(averaged) Q11I (AQMQGPYNFIIDSM) | 0 |
| AQMQGPYNFIQDSM(averaged) M14K (AQMQGPYNFIQDSK) | 0.0006833 |
| AQMQGPYNFIQDSM(averaged) Q11W (AQMQGPYNFIWDSM) | 0.01601 |
| AQMQGPYNFIQDSM(averaged) M3V (AQVQGPYNFIQDSM) | 0.3519 |
